Experimental data from US7101872B2, “Farnesyl dibenzodiazepinone, and processes for its production” (Ecopia BioSciences, Inc., priority 2003, dated 2006).

Columns and labels:
Assay type in all cases: cell-based
[1] = test system: DN; test: Antiproliferative study, glioma cell lines (MTT); conditions: Homo sapiens, Oligodendroglioma, 96 hrs
Description: (§1) Cells were passaged once a week. Prior to use the cells were detached from the culture flask by treating with trypsin for five to ten minutes. The cells were counted with a Neubauer glass slide and viability assessed by 0.25% trypan blue exclusion. Only flasks with >95% cell viability, were used in the study. Cell lines amplification and plating: Cells, 5×10^3 cells per well in 100 μL drug-free medium supplemented with 10% serum, were plated in 96-well flat bottom microtiter plates and incubated at 37° C. for 48 hrs before treatment. Evaluation of inhibitory activity on cell proliferation: Cells (in triplicate wells) were incubated 96 hrs with medium containing different concentrations of ECO-04601, starting at 5.0 μg/ml (10 μM). The compound was used in a solution of 1% DMSO in D-MEM or RPMI media (or other equivalent media). The concentrations of ECO-04601 were as follows: 10 μM (5.0 μg/ml), 1 μM (0.50 μg/ml), 0.5 μM (0.25 μg/ml), 0.1 μM (0.050 μg/ml), […] (0.025 μg/ml), 0.01 μM (0.0050 μg/ml), 0.001 μM (0.00050 μg/ml). Negative controls were cells treated with vehicle alone (1% DMSO in culture medium). Positive controls were cells treated with 4 to 6 increasing concentrations of cisplatin (CDDP) (data not shown). The optical density was measured before incubation (time 0) and following 96 hrs of incubation with test compound in order to measure the growth rate of each cell line.
(§2) At the end of the cell treatment, cell culture media was replaced with 150 μl of fresh medium containing 10 mM of 4-(2-hydroxyethyl)-1-piperazineethanesulfonic acid buffer, pH 7.4. Then 50 μl of 2.5 mg/ml of 3-(4,5-dimethylthiazo-2-yl)-2,5-diphenyltetrazolium bromide in PBS pH 7.4, were added to each well and the culture plates incubated for 4 hrs at 37° C. The resulting supernatant was removed and formazan crystals were dissolved with 200 μl of DMSO followed by 25 μl of glycine buffer (0.1 M glycine plus 0.1 M NaCl, pH 10.5). The optical density was read in each well using a single wavelength spectrophotometer plate reader at 570 nm. […] Each of the cell lines was tested in at least 3 independent experiments.

[2] = test system: U 373; test: Antiproliferative study, glioma cell lines (MTT); conditions: Homo sapiens, U373 MG, U 373, Astrocytoma, 96 hrs
Description: as §1, §2

[3] = test system: 9L; test: Antiproliferative study, glioma cell lines (MTT); conditions: Rattus norvegicus, Gliosarcoma, 96 hrs
Description: as §1, §2

[4] = test system: GHA; test: Antiproliferative study, glioma cell lines (MTT); conditions: Homo sapiens, Oligodendroglioma, 96 hrs
Description: as §1, §2

[5] = test system: C6; test: Antiproliferative study, glioma cell lines (MTT); conditions: Rattus norvegicus, C6, Glioblastoma, 96 hrs
Description: as §1, §2

[6] = test system: GHD; test: Antiproliferative study, glioma cell lines (MTT); conditions: Homo sapiens, Astrocytoma, 96 hrs
Description: as §1, §2

[7] = test system: RPMI-8226; test: NCI panel SRB growth inhibition; conditions: Homo sapiens, RPMI-8226, Leukemia, 48 h
Description: (§3) The operation of this unique screen utilizes […] different human tumor cell lines, representing leukemia, melanoma and cancers of the lung, colon, brain, ovary, breast, prostate, and kidney.
(§4) Culture conditions and plating: The human tumor cell lines of the cancer-screening panel were grown in RPMI 1640 medium containing 5% fetal bovine serum and 2 mM L-glutamine. For a typical screening experiment, cells were inoculated into 96 well microtiter plates in 100 μL at plating densities ranging from 5,000 to 40,000 cells/well depending on the doubling time of individual cell lines (Table 5). After cell inoculation, the microtiter plates were incubated at 37° C., 5% CO2, 95% air and 100% relative humidity for 24 h prior to addition of experimental drugs. After 24 h, two plates of each cell line were fixed in situ with TCA, to represent a measurement of the cell population for each cell line at the time of drug addition (Tz). Evaluation of inhibitory activity on cell proliferation: ECO-04601 was provided as a lyophilized powder with an estimated purity of 90+%. The compound was stored at −20° C. until day of use. ECO-04601 was solubilized in dimethyl sulfoxide at 400-fold the desired final maximum test concentration. At the time of drug addition, an aliquot of frozen concentrate was thawed and diluted to twice the desired final maximum test concentration with complete medium containing 50 μg/mL gentamicin. Additional four, 10-fold or Y2 log serial dilutions were made to provide a total of five drug concentrations plus control. Aliquots of 100 μl of these different drug dilutions were added to the appropriate microtiter wells already containing 100 μl of medium, resulting in the required final drug concentrations (8.0×10^−5 M to 8.0×10^−9 M).
(§5) Following drug addition, the plates were incubated for an additional 48 h at 37° C., 5% CO2, 95% air, and 100% relative humidity. For adherent cells, the assay was terminated by the addition of cold TCA. Cells were fixed in situ by the gentle addition of 50 μl of cold 50% (w/v) TCA (final concentration, 10% TCA) and incubated for 60 minutes at 4° C. Supernatants were discarded, and the plates were washed five times with tap water and air-dried. Sulforhodamine B (SRB) solution (100 μl) at 0.4% (w/v) in 1% acetic acid was added to each well, and plates were incubated for 10 minutes at room temperature. After staining, unbound dye was removed by washing five times with 1% acetic acid and the plates were air-dried. Bound stain was subsequently solubilized with 10 mM trizma base, and the absorbance was read on an automated plate reader at a wavelength of 515 nm. For suspension cells, the methodology was the same except that the assay was terminated by fixing settled cells at the bottom of the wells by gently adding 50 μl of 80% TCA (final concentration, 16% TCA).
(§6) The growth inhibitory activity of ECO-04601 was measured by NCI utilizing the GI50 value, rather than the classical IC50 value.

[8] = test system: EKVX; test: NCI panel SRB growth inhibition; conditions: Homo sapiens, Non-Small Cell Lung, 48 h
Description: as §3, §4, §5, §6

[9] = test system: OVCAR-8; test: NCI panel SRB growth inhibition; conditions: Homo sapiens, OVCAR-8, Ovarian, 48 h
Description: as §3, §4, §5, §6

[10] = test system: HCT-15; test: NCI panel SRB growth inhibition; conditions: Homo sapiens, HCT-15, Colon, 48 h
Description: as §3, §4, §5, §6

[11] = test system: A498; test: NCI panel SRB growth inhibition; conditions: Homo sapiens, A498, Renal, 48 h
Description: as §3, §4, §5, §6

[12] = molecular target: T1, human 5-LO (Homo sapiens, UniProt P09917); test: Human 5-lipoxygenase activity in stimulated PMNs (Leukotriene B4 EIA)
T1 construct: Human peripheral blood mononuclear cells (PMNs) were isolated through a Ficoll-Paque density gradient; endogenous in cells; host or cells: human peripheral blood cells (PMNs) isolated by Ficoll-Paque, stimulated with A23187
T1 sequence (P09917 whole entry): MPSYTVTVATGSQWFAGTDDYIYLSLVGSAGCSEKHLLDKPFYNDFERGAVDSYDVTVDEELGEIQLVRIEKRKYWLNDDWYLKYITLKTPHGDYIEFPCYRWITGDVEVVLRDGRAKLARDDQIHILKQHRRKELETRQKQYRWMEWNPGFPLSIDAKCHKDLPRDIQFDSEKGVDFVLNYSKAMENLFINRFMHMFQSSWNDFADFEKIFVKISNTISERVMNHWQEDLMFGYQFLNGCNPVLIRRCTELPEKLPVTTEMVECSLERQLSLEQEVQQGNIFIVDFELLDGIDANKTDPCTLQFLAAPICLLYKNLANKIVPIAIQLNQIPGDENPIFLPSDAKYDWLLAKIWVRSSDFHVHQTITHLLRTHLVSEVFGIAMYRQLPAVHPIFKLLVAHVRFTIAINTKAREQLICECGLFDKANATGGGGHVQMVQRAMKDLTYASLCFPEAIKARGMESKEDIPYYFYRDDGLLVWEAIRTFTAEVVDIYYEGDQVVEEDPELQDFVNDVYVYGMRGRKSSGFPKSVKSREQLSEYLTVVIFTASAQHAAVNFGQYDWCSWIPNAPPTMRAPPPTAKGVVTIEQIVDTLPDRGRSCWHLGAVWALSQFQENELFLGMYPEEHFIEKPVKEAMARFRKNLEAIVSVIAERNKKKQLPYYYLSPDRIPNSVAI
Description: Experimental Design: Human peripheral blood mononuclear cells (PMNs) were isolated through a Ficoll-Paque density gradient. PMNs were stimulated by addition A23187 (30 μM final concentration). […] Following incubation, samples were neutralized with NaOH and centrifuged. Leukotriene B4 content was measured in the supernatant using an Enzyme Immunosorbant Assay (EIA) assay.

For `CC(C)=CCC/C(C)=C/CC/C(C)=C/CN1C(=O)c2cccc(O)c2Nc2c(O)cc(O)cc21` [ECO-04601, 10-farnesyl-4,6,8-trihydroxy-dibenzodiazepin-11-one], the IC50 [1] was 3.26 ± 0.93 µM, the IC50 [2] was 3.83 ± 1.37 µM and the IC50 [3] was 6.82 ± 2.9 µM. It also gave an IC50 [4] of 1.78 ± 0.84 µM, an IC50 [5] of 4.28 ± 2.82 µM and an IC50 [6] of 6.29 ± 2.98 µM. For the same compound, the GI50 [7] was 3.15 µM, the GI50 [8] was 0.23 µM and the GI50 [9] was 2.65 µM. The GI50 [10] was 9.73 µM, the GI50 [11] was 22.3 µM and the IC50 ([12]; A23187-stimulated human PMNs, 15 minutes at 37° C., Leukotriene B4 EIA, read-out: apparent IC50, activity of human 5-LO) was 0.93 µM. It also gave an EC50 ([12]; FIG. 8 legend) of 0.93 µM.
